Experimental data from patent publication US11384097B2, “Tetrahydroisoquinoline derivative, preparation method therefor and use thereof” (ZHEJIANG HISUN PHARMACEUTICAL CO., LTD., priority 2018, dated 2022).
Read-outs that look alike come from different tables or passages of the source.

Tests used:
[1] = Pharmacokinetic study in SD rats (intravenous injection and intragastric administration); format: in vivo, Sprague Dawley (SD) rats; details: for bioavailability / half-life / AUC(0-inf) / Cmax / MRT: male, Sprague-Dawley, rat, plasma; for bioavailability: Oral (10 mg/kg) vs Injection (1 mg/kg), read-out: Bioavailability F(%); for half-life: read-out: Half-life T1/2 (converted); for AUC(0-inf): read-out: area under curve AUC0-∞; for Cmax: read-out: blood concentration Cmax; for MRT: read-out: residence time MRT
Protocol: Test Example 3. Oral Pharmacokinetic Studies of the Compounds of the Present Disclosure in SD Rats
SD rats were used as the experimental animal. The rats were intravenously injected or intragastrically administered with the compounds of the present disclosure, and the drug concentrations in plasma at different times were tested by LC/MS/MS methods, so as to research the pharmacokinetic characteristics of compounds of present disclosure in rats.
Forty-eight healthy adult Sprague Dawley (SD) male rats were purchased from Weitong Lihua Laboratory Animal Technology Co., Ltd., production license number: 11400700271077.
48 healthy adult male SD rats were fasted overnight and administered via tail vein injection (at a dosage of 1 mg/kg) and intragastrically administered (at a dosage of 10 mg/kg), respectively. The rats were fed 4 h after the administration.
About 0.2 mL of blood was collected from the jugular vein before administering and at 0.083 hours, 0.25 hours, 0.5 hours, 1 hour, 2 hours, 4 hours, 8 hours, 12 hours, and 24 hours after administering, and heparin sodium was used for anticoagulation. Blood samples were collected and placed on ice, and plasma was separated by centrifugation (centrifugation conditions: 1500 g, 10 min). The collected plasma was stored at −40° C.-20° C. before analysis.
10 μL of plasma sample was taken and 400 μL of acetonitrile (containing internal standard working solution, comprising 5 ng/mL verapamil and 50 ng/mL glibenclamide) was added. The resulting mixture was vortexed for 10 minutes, and centrifuged at 3700 rpm for 10 minutes. 70 μL of the supernatant was taken, and […] of water was added. The resulting mixture was vortexed for 10 minutes, and 2 μL of the mixture was transferred to the LC-MS/MS for sample analysis.

[2] = Metabolic stability in rat liver microsomes; format: in vitro ADME; details: for half-life at 1 µM: rat liver microsomes 0.5 mg/mL, 1 μM compound, NADPH 1 mM, read-out: Half-life/(T1/2, min)
Protocol: Test Example 2. Study on the Metabolic Stability of the Compound of the Present Disclosure in Rat Liver Microsomes
The purpose of this experiment is to study the metabolic stability of the compounds of the present disclosure in rat liver microsomes.
The compounds were incubated with rat liver microsomes and coenzyme NADPH was added to initiate the reaction. At 0, 5, 15, 30 and 60 minutes, 20 μL of incubation solution was taken out and transferred to 200 μL of acetonitrile containing internal standard to stop the reaction. After protein precipitation, the resulting mixture was centrifuged at 3,700 rpm for 10 minutes, and the supernatant was taken. The supernatant was diluted 1:1 with water and analyzed by LC-MS/MS method. According to the elimination half-life of the test compound in the incubation system, the in vitro intrinsic clearance rate was calculated. Midazolam was used as the internal reference compound and all incubations were performed in duplicate in parallel.
The peak area ratio analyte/internal standard (Aanalyte/AIS) is obtained by the instrument, and the remaining percentage (% Control) is calculated from the ratio Aanalyte/AIS in the non-zero time point sample to the zero time point sample. Ln (% Control) against incubation time is plotted and a linear fit was performed.

Human AT2R = target: T1, Human AT2R (Homo sapiens, UniProt P50052); test: Antagonistic activity assay on human AT2R ligand binding (Tag-lite HTRF, Tb-labeled-AT2R cells); details: AT2 ligand binding, red agonist fluorescent ligand
T1 construct: Terbium (Tb) donor label on the receptor; From my own knowledge, the Tag-lite format usually uses an N-terminal SNAP-tag fusion labelled with Lumi4-Tb; expressed in transfected cells
T1 sequence (P50052 1-363): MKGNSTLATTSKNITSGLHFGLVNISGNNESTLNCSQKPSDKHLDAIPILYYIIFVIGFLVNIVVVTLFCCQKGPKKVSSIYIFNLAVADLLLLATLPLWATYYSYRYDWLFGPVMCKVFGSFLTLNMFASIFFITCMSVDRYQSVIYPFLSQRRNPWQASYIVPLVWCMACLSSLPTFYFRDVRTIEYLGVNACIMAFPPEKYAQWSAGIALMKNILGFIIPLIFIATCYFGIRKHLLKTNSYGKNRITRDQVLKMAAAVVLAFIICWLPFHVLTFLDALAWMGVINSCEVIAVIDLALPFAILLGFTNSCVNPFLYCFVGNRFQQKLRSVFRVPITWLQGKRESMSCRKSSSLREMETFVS
Protocol: Antagonistic Activity Assay of the Compound of the Present Disclosure on Human AT2R Ligand Binding
According to standard methods, all compounds were dissolved in dimethyl sulfoxide and prepared as 10 mM stock solutions.
(3) Each of the diluted compound in step (2) was transferred to a working plate (3657, Corning) at 160 nL/well, at 200 g, at room temperature for 1 minute;
(4) 40 μl 1×TLB was added to the above working plate, and it was centrifuged at 200 g (centrifugal force) at room temperature for 1 minute, shook on a shaker for 15 minutes to mix well, and centrifuged at 200 g (working concentration of the compound was 4×) at room temperature for 1 minute for later use;
(6) 5 mL 1×TLB was taken in a 15 mL centrifuge tube;
(7) a Tb-labeled-AT2R cells were frozen and thawed in a 37° C. water bath until the ice was completely melted (1-2 minutes);
(8) The frozen and thawed cells were rapidly transferred to the 1×TLB in step (6), and the resulting solution was mixed gently, and then centrifuged at 1200 g at room temperature for 5 minutes;
After being mixed well, the resulting mixture was placed at room temperature for late use;
(11) The reaction plate was centrifuged at 200 g at room temperature for 1 minute, and stood for 1 hour at room temperature of 25° C., and then it was centrifuged at 200 g at room temperature for 1 minute. The data was collected using Envision HTRF microplate reader, and IC50 was calculated using a nonlinear fitting formula.

[3] = iv, Injection (1 mg/kg), tail vein

Structure (SMILES)	half-life ([1]; Oral (10 mg/kg)) [h]	AUC(0-inf) ([1]; Oral (10 mg/kg)) [ng·h/mL]	MRT ([1]; Oral (10 mg/kg)) [h]	AUC(0-inf) [1, 3] [ng·h/mL]	MRT [1, 3] [h]	half-life at 1 µM [2] [min]	IC50 (Human AT2R) [nM]	also measured
COc1ccc2c(c1OCc1ccccc1)CC(C(=O)NS(=O)(=O)N(C)C)N(c1nc3ccccc3o1)C2 (stereo not drawn) [Example 9, 2-(Benzo[d]oxazol-2-yl)-5-(benzyloxy)-N—(N,N-dimethylsulfonyl)-6-methoxy-1,2,3,4-tetrahydroisoquinoline-3-carboxamide]	2.1 ± 1.6	18100 ± 5400	2.2 ± 0.8	2550 ± 720	1.3 ± 0.2	–	–	bioavailability [1]: 71.1%; Cmax ([1]; Oral (10 mg/kg)): 9470 ± 5890 ng/mL; half-life [1, 3]: 1.3 ± 0.1 h
COc1ccc2c(c1OCc1ccccc1)C[C@@H](C(=O)O)N(c1nc3ccc(F)cc3o1)C2 [Example 14, (S)-5-(Benzyloxy)-2-(6-fluorobenzo[d]oxazol-2-yl)-6-methoxy-1,2,3,4-tetrahydroisoquinoline-3-carboxylic acid]	3.6 ± 0.2	29600 ± 4670	5.3 ± 0.4	8230 ± 1090	1.9 ± 0.4	233	–	–
COc1ccc2c(c1OCc1ccccc1)C[C@@H](C(=O)O)N(c1nc3ccc(C#N)cc3o1)C2 [Example 15, (S)-5-(Benzyloxy)-2-(6-cyanobenzo[d]oxazol-2-yl)-6-methoxy-1,2,3,4-tetrahydroisoquinoline-3-carboxylic acid]	4.7 ± 1.3	45400 ± 11900	6.3 ± 1.1	9590 ± 579	2 ± 0.6	317	36	Half-life T1/2 ([1]; Injection (1 mg/kg), tail vein): 4.2 ± 1.2 h; bioavailability [1]: 47.3%
COc1ccc2c(c1OCc1ccccc1)C[C@@H](C(=O)O)N(c1nc3ccc(Cl)cc3o1)C2 [Example 16, (S)-5-(benzyloxy)-2-(6-chlorobenzo[d]oxazol-2-yl)-6-methoxy-1,2,3,4-tetrahydroisoquinoline-3-carboxylic acid]	–	–	–	–	–	–	36	–
CCS(=O)(=O)NC(=O)[C@@H]1Cc2c(ccc(OC)c2COc2ccccc2)CN1c1nc2ccc(F)cc2o1 [Example 19, (S)—N-(ethylsulfonyl)-2-(6-fluorobenzo[d]oxazol-2-yl)-6-methoxy-5-(phenoxymethyl)-1,2,3,4-tetrahydroisoquinoline-3-carboxamide]	–	–	–	–	–	175	25	–
COc1ccc2c(c1COc1ccccc1)C[C@@H](C(=O)NS(=O)(=O)N(C)C)N(c1nc3ccc(F)cc3o1)C2 [Example 20, (S)—N—(N,N-dimethylaminosulfonyl)-2-(6-fluorobenzo[d]oxazol-2-yl)-6-methoxy-5-(phenoxymethyl)-1,2,3,4-tetrahydroisoquinoline-3-carboxamide]	–	–	–	–	–	–	26	–
COc1ccc2c(c1COc1ccccc1)C[C@@H](C(=O)NS(=O)(=O)C1CC1)N(c1nc3ccc(F)cc3o1)C2 [Example 21, (S)—N-(cyclopropylsulfonyl)-2-(6-fluorobenzo[d]oxazol-2-yl)-6-methoxy-5-(phenoxymethyl)-1,2,3,4-tetrahydroisoquinoline-3-carboxamide]	–	–	–	–	–	–	36	–
COc1ccc2c(c1OCc1ccccc1)C[C@@H](C(=O)O)N(c1nc3ccncc3o1)C2 [Example 22, (S)-5-(benzyloxy)-6-methoxy-2-(oxazolo[5,4-c]pyridin-2-yl)-1,2,3,4-tetrahydroisoquinoline-3-carboxylic acid]	3.9 ± 0.8	35700 ± 6090	3.7 ± 0.8	8020 ± 635	1.2 ± 0.3	–	–	remaining original drug after incubation in rat liver microsomes ([2]; rat liver microsomes, 60 minutes): ~100%; bioavailability [1]: 44.6%; Cmax ([1]; Oral (10 mg/kg)): 15900 ± 11000 ng/mL; half-life [1, 3]: 2 ± 0.6 h
COc1ccc2c(c1OCc1ccccc1)C[C@@H](C(=O)NS(C)(=O)=O)N(c1nc3ccc(F)cc3o1)C2 [Example 26, (S)-5-(Benzyloxy)-2-(6-fluorobenzo[d]oxazol-2-yl)-6-methoxy-N-(methylsulfonyl)-1,2,3,4-tetrahydroisoquinoline-3-carboxamide]	–	–	–	–	–	–	37	–
COc1ccc2c(c1OCc1ccc(F)cc1)C[C@@H](C(=O)O)N(c1nc3ccc(F)cc3o1)C2 [Example 29, (S)-2-(6-fluorobenzo[d]oxazol-2-yl)-5-((4-fluorobenzyl)oxy)-6-methoxy-1,2,3,4-tetrahydroisoquinoline-3-carboxylic acid]	–	–	–	–	–	164	–	–
COc1ccc2c(c1OCc1ccc(C(F)(F)F)cc1)C[C@@H](C(=O)O)N(c1nc3ccc(F)cc3o1)C2 [Example 38, (S)-2-(6-fluorobenzo[d]oxazol-2-yl)-6-methoxy-5-((4-(trifluoromethyl)benzyl)oxy)-1,2,3,4-tetrahydroisoquinoline-3-carboxylic acid]	–	–	–	–	–	–	11	–
COc1ccc(COc2c(OC)ccc3c2C[C@@H](C(=O)O)N(c2nc4ccc(F)cc4o2)C3)cn1 [Example 39, (S)-2-(6-fluorobenzo[d]oxazol-2-yl)-6-methoxy-5-((6-methoxypyridin-3-yl)methoxy)-1,2,3,4-tetrahydroisoquinoline-3-carboxylic acid]	3.6 ± 0.3	15300 ± 2260	4.3 ± 0.6	3380 ± 405	1.9 ± 0.3	845	–	Half-life T1/2 ([1]; Injection (1 mg/kg), tail vein): 2.3 ± 0.4 h; bioavailability [1]: 45.3%
COc1ccc(COc2c(OC)ccc3c2C[C@@H](C(=O)O)N(c2nc4ccc(C#N)cc4o2)C3)cc1 [Example 42, (S)-2-(6-cyanobenzo[d]oxazol-2-yl)-6-methoxy-5-((4-methoxybenzyl)oxy)-1,2,3,4-tetrahydroisoquinoline-3-carboxylic acid]	–	–	–	–	–	451	6	–
COc1ccc(COc2c(OC)ccc3c2C[C@@H](C(=O)O)N(c2nc4ccc(C#N)cc4o2)C3)cn1 [Example 43, (S)-2-(6-cyanobenzo[d]oxazol-2-yl)-6-methoxy-5-((6-methoxypyridin-3-yl)methoxy)-1,2,3,4-tetrahydroisoquinoline-3-carboxylic acid]	–	–	–	–	–	–	33	–
COc1ccc(COc2c(OC)ccc3c2C[C@@H](C(=O)O)N(c2nc4ccc(C#N)cc4o2)C3)nc1 [Example 44, (S)-2-(6-cyanobenzo[d]oxazol-2-yl)-6-methoxy-5-((5-methoxypyridin-2-yl)methoxy)-1,2,3,4-tetrahydroisoquinoline-3-carboxylic acid]	–	–	–	–	–	–	33	–
CCS(=O)(=O)NC(=O)[C@@H]1Cc2c(ccc(OC)c2OCc2ccc(OC)cc2)CN1c1nc2ccc(F)cc2o1 [Example 45, (S)—N-(ethylsulfonyl)-2-(6-fluorobenzo[d]oxazol-2-yl)-6-methoxy-5-((4-methoxybenzyl)oxy)-1,2,3,4-tetrahydroisoquinoline-3-carboxamide]	–	–	–	–	–	–	6	–
COc1ccc(COc2c(OC)ccc3c2C[C@@H](C(=O)NS(=O)(=O)N(C)C)N(c2nc4ccc(F)cc4o2)C3)cc1 [Example 46]	–	–	–	–	–	–	5	–
COc1ccc2c(c1OCc1ccccc1)C[C@@H](C(=O)O)N(C(=O)C(c1ccccc1)c1ccccc1)C2 [olodanrigan, reference compound]	1.5 ± 0.3	1480 ± 715	2.6 ± 1	1230 ± 96	0.92 ± 0.16	96.3	–	bioavailability [1]: 12.1%; Cmax ([1]; Oral (10 mg/kg)): 470 ± 197 ng/mL; half-life [1, 3]: 1.6 ± 0.3 h
